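Assay format: 96-well plates, 48-hour exposure. Here, GI50 denotes the concentration required for 50% inhibition of growth. At the TGI there is no net growth.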
Tests used:
Experiment in all cases: NCI-60 cell line screen, 48 h
[1] = system: A549 NSCLC
[2] = system: CCRF-CEM leukemia
[3] = system: KM12 colon
[4] = system: MCF7 breast
[5] = system: MDA-N
[6] = system: OVCAR-5 ovarian
[7] = system: SNB-19 CNS
[8] = system: SW-620 colon
[9] = system: CAKI-1 renal
[10] = system: EKVX NSCLC

SMILES | TGI [1] | TGI [2] | TGI [3] | TGI [4] | TGI [5] | TGI [6] | TGI [7] | TGI [8] | TGI [9] | TGI [10] | GI50 [1] | GI50 [9] | GI50 [10] | GI50 [3] | GI50 [4] | GI50 [6] | GI50 [7] | GI50 [8]
COc1ccc(C2C(C#N)=C(S)N(C3OC(CO)C(O)C(O)C3O)C(c3ccccc3)=C2C(C)=O)cc1 (stereo unspecified) | > 100 µM | > 100 µM | > 100 µM | > 100 µM | > 100 µM | > 100 µM | > 100 µM | > 100 µM | – | – | – | – | – | – | – | – | – | –
Cc1ccc(N=Nc2c(C)c(C#N)c(=S)n(C3OC(CO)C(O)C(O)C3O)c2-c2ccccc2)cc1 (stereo unspecified) | > 100 µM | 48.1 µM | 58.9 µM | 34.7 µM | 71.7 µM | 55.9 µM | 48.1 µM | 36.3 µM | 92.6 µM | – | – | – | – | – | – | – | – | –
O=C1C(Br)=C(c2ccccc2)S(=O)c2ccccc21 (stereo unspecified) | 62 µM | – | 30.7 µM | 10.4 µM | 20.4 µM | 41 µM | 39.9 µM | 38.4 µM | 21.8 µM | 33.9 µM | – | – | – | – | – | – | – | –
COc1c2cc(C(C)(C)C)cc1Cc1cccc(c1O)Cc1cc(C(C)(C)C)cc(c1OC)Cc1cccc(c1O)Cc1cc(C(C)(C)C)cc(c1OC)Cc1cccc(c1O)C2 | > 100 µM | – | > 100 µM | > 100 µM | > 100 µM | > 100 µM | > 100 µM | > 100 µM | > 100 µM | > 100 µM | – | – | – | – | – | – | – | –
c1ccc2c(Cc3nnc4sc(SSc5nn6c(Cc7c[nH]c8ccccc78)nnc6s5)nn34)c[nH]c2c1 | 88.4 µM | > 100 µM | 70.3 µM | 46.4 µM | – | 53.1 µM | > 100 µM | 37.6 µM | 62.6 µM | > 100 µM | – | – | – | – | – | – | – | –
COC(=O)C1(Cc2ccccc2)Cc2ccccc2C1 | > 100 µM | 42.4 µM | > 100 µM | > 100 µM | 49.3 µM | > 100 µM | – | > 100 µM | 65.4 µM | 89.4 µM | – | – | – | – | – | – | – | –
NNC(=S)N1CCN(C(=S)NN)CC1 | > 100 µM | > 100 µM | > 100 µM | – | > 100 µM | > 100 µM | > 100 µM | > 100 µM | > 100 µM | > 100 µM | – | – | – | – | – | – | – | –
O=c1[nH]c2cc3[nH]c4ncccc4c(=O)c3cc2[nH]1 | > 10 µM | > 10 µM | > 10 µM | – | > 10 µM | > 10 µM | > 10 µM | > 10 µM | > 10 µM | > 10 µM | – | – | – | – | – | – | – | –
O=C(NCCCNCCNC(=O)c1cc(-c2ccccc2)nc2ccccc12)c1cc(-c2ccccc2)nc2ccccc12 | 3.13 µM | 3.42 µM | 3.55 µM | 3.15 µM | 3.36 µM | – | 3.93 µM | 3.09 µM | 5.45 µM | 5.2 µM | – | – | – | – | – | – | – | –
COc1cc(S(=O)(=O)Nc2ccc(C3=NNC(c4ccccc4)C3)cc2)ccc1F (stereo unspecified) | > 100 µM | – | > 100 µM | > 100 µM | – | > 100 µM | > 100 µM | > 100 µM | > 100 µM | > 100 µM | 53.9 µM | 37.3 µM | 17.8 µM | 18 µM | 22.2 µM | 66.8 µM | > 100 µM | 44.4 µM
CN(C)CCCOCCn1c2c(c3ccccc31)CCCC2 | 31.8 µM | 30 µM | 43.1 µM | 31.5 µM | 29 µM | 30.5 µM | – | 37.5 µM | 31.5 µM | 57.8 µM | – | – | – | – | – | – | – | –
O=C(N[C@H]1c2ccsc2/C(=N/O)[C@H]1O)C(F)(F)F | > 100 µM | > 100 µM | – | > 100 µM | > 100 µM | > 100 µM | > 100 µM | > 100 µM | > 100 µM | > 100 µM | – | – | – | – | – | – | – | –
NCCCCNCCCNC(=O)c1nc(-c2csc(CCN)n2)sc1Cl | > 100 µM | > 100 µM | > 100 µM | – | – | > 100 µM | > 100 µM | > 100 µM | > 100 µM | > 100 µM | – | – | – | – | – | – | – | –
C#CCn1c(=O)c(C#N)c(O)c2cc3ccccc3nc21 | > 100 µM | > 100 µM | > 100 µM | > 100 µM | – | > 100 µM | > 100 µM | > 100 µM | > 100 µM | > 100 µM | – | – | – | – | – | – | – | –
COC(=O)[C@@H]1C[C@@]2(C3C=CN(C(=O)C(F)(F)F)C=C3)c3ccccc3N(C(=O)C(F)(F)F)[C@H]2N1C(=O)OC | > 100 µM | > 100 µM | > 100 µM | > 100 µM | – | > 100 µM | > 100 µM | > 100 µM | > 100 µM | > 100 µM | – | – | – | – | – | – | – | –
COc1ccccc1Nc1nc(NNC(=O)Cc2ccccc2)nc(NNC(=O)c2ccncc2)n1 | > 10 µM | > 10 µM | > 10 µM | > 10 µM | > 10 µM | – | – | > 10 µM | > 10 µM | > 10 µM | – | – | – | – | – | – | – | –
Cc1c2c(OCCCCN3CCN(c4ncccn4)CC3)nn(C)c(=O)c2c(C)n1-c1ccccc1 | 40.9 µM | > 100 µM | 43.1 µM | 31.4 µM | – | 37.6 µM | 33.3 µM | 69.4 µM | 35.3 µM | 36.6 µM | – | – | – | – | – | – | – | –
CC(=O)c1cc2ccccc2n(O)c1=N | > 100 µM | > 100 µM | > 100 µM | > 100 µM | > 100 µM | > 100 µM | – | – | > 100 µM | > 100 µM | – | – | – | – | – | – | – | –
CCOc1cc(C2CC(c3ccc(NS(=O)(=O)c4cc([N+](=O)[O-])ccc4C)cc3)=NN2)ccc1O (stereo unspecified) | > 100 µM | > 100 µM | – | 49.6 µM | > 100 µM | > 100 µM | > 100 µM | > 100 µM | > 100 µM | 53.3 µM | – | – | – | – | – | – | – | –
Clc1ccc(N=c2oc3ccccc3cc2-c2nc3ccccc3[nH]2)c(Cl)c1 | – | > 100 µM | > 100 µM | – | > 100 µM | > 100 µM | > 100 µM | > 100 µM | > 100 µM | > 100 µM | – | – | – | – | – | – | – | –
NNc1nncn1N | > 100 µM | 33.2 µM | > 100 µM | > 100 µM | – | > 100 µM | > 100 µM | > 100 µM | > 100 µM | > 100 µM | – | – | – | – | – | – | – | –
CCc1ccc2c(c1)CC1(C2)Cc2cc3c(cc2C1)C(=O)CC3 (stereo unspecified) | 71.8 µM | 8.31 µM | > 100 µM | > 100 µM | – | > 100 µM | – | – | – | > 100 µM | – | – | – | – | – | – | – | –
O=S1(=O)c2ccccc2NC(=S)CC1c1ccccc1 (stereo unspecified) | > 100 µM | > 100 µM | > 100 µM | > 100 µM | > 100 µM | > 100 µM | > 100 µM | – | > 100 µM | > 100 µM | – | – | – | – | – | – | – | –

— PubChem BioAssay (NCI)
